Results: patent publication US10138238B2, “Pesticidally active polycyclic derivatives with sulfur containing substituents” (Syngenta Participations AG, priority 2015, dated 2018)

How the values were obtained:
Format in all cases: in vivo
[1] = tested on: Diabrotica balteata (Corn Root Worm); experiment: Example B2: Diabrotica balteata, maize sprouts, L2 larvae; details: 96 h, application rate of 200 ppm, 4 days after infestation, read-out: effect in at least one of the two categories (mortality or growth inhibition)
Method: (§1) Maize sprouts placed onto an agar layer in 24-well microtiter plates were treated with aqueous test solutions prepared from 10'000 ppm DMSO stock solutions by spraying. After drying, the plates were infested with L2 larvae (6 to 10 per well). The samples were assessed for mortality and growth inhibition in comparison to untreated samples 4 days after infestation. The following compounds gave an effect of at least 80% in at least one of the two categories (mortality or growth inhibition) at an application rate of 200 ppm: P1, P2, P3, P4, P5, P6, P7, P8, P9, P10, P11, P12, P13, P14, and P15.

[2] = tested on: Diabrotica balteata (Corn Root Worm); experiment: Example B13: Breakpoint (BP80) against Diabrotica balteata; details: lowest concentration which gives 80% larval mortality; larval feeding/contact
Method: as §1
(§2) Insecticidal action against Diabrotica balteata (Corn root worm), Plutella xylostella (Diamond black moth), and Spodoptera littoralis (Egyptian cotton leaf worm). The tests were carried out as described in biological examples B2, B6 and B7, respectively, with the larval feeding/contact activity being reported as Breakpoint (BP80) values in parts per million (i.e. the lowest concentration which gives 80% larval mortality).

[3] = tested on: Plutella xylostella (Diamond black moth); experiment: Example B13: Breakpoint (BP80) against Plutella xylostella; details: lowest concentration which gives 80% larval mortality; larval feeding/contact
Method: (§3) 24-well microtiter plates with artificial diet were treated with aqueous test solutions prepared from 10'000 ppm DMSO stock solutions by pipetting. After drying, the plates were infested with L2 larvae (10 to 15 per well). The samples were assessed for mortality and growth inhibition in comparison to untreated samples 5 days after infestation. The following compounds gave an effect of at least 80% in at least one of the two categories (mortality or growth inhibition) at an application rate of 200 ppm: P1, P2, P3, P4, P6, P8, P9, P10, P11, P12, P13, P14 and P15.
as §2

[4] = tested on: Spodoptera littoralis (Egyptian Cotton Leaf Worm); experiment: Example B7: Spodoptera littoralis, cotton leaf discs, L1 larvae; details: foliar, 72 h, application rate of 200 ppm, 3 days after infestation
Method: (§4) Cotton leaf discs were placed onto agar in 24-well microtiter plates and sprayed with aqueous test solutions prepared from 10'000 ppm DMSO stock solutions. After drying the leaf discs were infested with five L1 larvae. The samples were assessed for mortality, anti-feeding effect, and growth inhibition in comparison to untreated samples 3 days after infestation. Control of Spodoptera littoralis by a test sample is given when at least one of the categories mortality, anti-feedant effect, and growth inhibition is higher than the untreated sample.

[5] = tested on: Spodoptera littoralis (Egyptian Cotton Leaf Worm); experiment: Example B13: Breakpoint (BP80) against Spodoptera littoralis; details: lowest concentration which gives 80% larval mortality; larval feeding/contact
Method: as §4, §2

[6] = tested on: Plutella xylostella (Diamond Back Moth); experiment: Example B6: Plutella xylostella, artificial diet, L2 larvae; details: 120 h, application rate of 200 ppm, 5 days after infestation, read-out: effect in at least one of the two categories (mortality or growth inhibition)
Method: as §3

[7] = tested on: Euschistus heros (Neotropical Brown Stink Bug); experiment: Example B3: Euschistus heros, soybean leaves, N2 nymphs; details: 120 h, application rate of 200 ppm, 5 days after infestation, read-out: effect in at least one of the two categories (mortality or growth inhibition)
Method: Soybean leaves on agar in 24-well microtiter plates were sprayed with aqueous test solutions prepared from 10'000 ppm DMSO stock solutions. After drying the leaves were infested with N2 nymphs. The samples were assessed for mortality and growth inhibition in comparison to untreated samples 5 days after infestation. The following compounds gave an effect of at least 80% in at least one of the two categories (mortality or growth inhibition) at an application rate of 200 ppm: • P1, P3, P8, P9, P10, P13, P14, and P15

[8] = tested on: Diabrotica balteata (Corn Root Worm); experiment: Example B14: Breakpoint (BP80) against Diabrotica balteata; details: lowest concentration which gives 80% larval mortality; Table B14
Method: as §1
Insecticidal action against Diabrotica balteata (Corn root worm). The test were carried out as described in biological example B6 with the larval feeding contact activity being reported as Breakpoint (BP80) values in parts per million (i.e. the lowest concentration which gives 80% larval mortality).

[9] = tested on: Bemisia tabaci (Cotton White Fly); experiment: Example B1: Bemisia tabaci feeding/contact activity; details: 144 h, application rate of 200 ppm, adult white flies, 6 days after incubation
Method: Cotton leaf discs were placed on agar in 24-well microtiter plates and sprayed with aqueous test solutions prepared from 10'000 ppm DMSO stock solutions. After drying the leaf discs were infested with adult white flies. The samples were checked for mortality 6 days after incubation.

[10] = tested on: Myzus persicae (Green Peach Aphid); experiment: Example B4: Myzus persicae feeding/contact activity; details: 144 h, application rate of 200 ppm, 6 days after infestation
Method: Sunflower leaf discs were placed onto agar in a 24-well microtiter plate and sprayed with aqueous test solutions prepared from 10'000 ppm DMSO stock solutions. After drying, the leaf discs were infested with an aphid population of mixed ages. The samples were assessed for mortality 6 days after infestation.

[11] = tested on: Spodoptera littoralis (Egyptian Cotton Leaf Worm); experiment: Example B8: Spodoptera littoralis systemic activity; details: 144 h, test rate of 12.5 ppm, lettuce, 6 days after infestation, read-out: effect in at least one of the three categories (mortality, anti-feeding, or growth inhibition)
From the text: Test compounds were applied by pipette from 10'000 ppm DMSO stock solutions into 24-well plates and mixed with agar. Lettuce seeds were placed onto the agar and the multi well plate was closed by another plate which contained also agar. After 7 days the compound was absorbed by the roots and the lettuce grew into the lid plate. The lettuce leaves were then cut off into the lid plate. Spodoptera eggs were pipetted through a plastic stencil onto a humid gel blotting paper and the lid plate was closed with it. The samples were assessed for mortality, anti-feedant effect and growth inhibition in comparison to untreated samples 6 days after infestation. The following compounds gave an effect of at least 80% in at least one of the three categories (mortality, anti-feeding, or growth inhibition) at a test rate of 12.5 ppm: • P10, P13, P14 and P15.

[12] = tested on: Tetranychus urticae (Two-Spotted Spider Mite); experiment: Example B9: Tetranychus urticae feeding/contact activity; details: 192 h, application rate of 200 ppm, mixed population (mobile stages), 8 days after infestation, read-out: mortality
Method: Bean leaf discs on agar in 24-well microtiter plates were sprayed with aqueous test solutions prepared from 10'000 ppm DMSO stock solutions. After drying the leaf discs were infested with a mite population of mixed ages. The samples were assessed for mortality on mixed population (mobile stages) 8 days after infestation.

## CCS(=O)(=O)c1ccc(-c2ccc(Cl)cc2)nc1-c1nc2cc(C(F)(F)F)ncc2n1C [Compound P1, 2-[6-(4-chlorophenyl)-3-ethylsulfonyl-2-pyridyl]-3-methyl-6-(trifluoromethyl)imidazo[4,5-c]pyridine]
[1]
  percent effect (mortality or growth inhibition) at 200 ppm: ≥ 80%
[2]
  BP80 Values Diabrotica balteata: 3 ppm
[3]
  BP80 Values Plutella xylostella: 12 ppm
[4]
  percent control (mortality, anti-feedant effect or growth inhibition) at 200 ppm: ≥ 80%
[5]
  BP80 Values Spodoptera littoralis: 12 ppm
[6]
  percent effect (mortality or growth inhibition) at 200 ppm: ≥ 80%
[7]
  percent effect (mortality or growth inhibition) at 200 ppm: ≥ 80%

## CCS(=O)(=O)c1ccc(/C=C/c2ccccc2C(F)(F)F)nc1-c1nc2cc(C(F)(F)F)ncc2n1C [Compound P2, 2-[3-ethylsulfonyl-6-[(E)-2-[2-(trifluoromethyl)phenyl]vinyl]-2-pyridyl]-3-methyl-6-(trifluoromethyl)imidazo[4,5-c]pyridine]
[1]
  percent effect (mortality or growth inhibition) at 200 ppm: ≥ 80%
[4]
  percent control (mortality, anti-feedant effect or growth inhibition) at 200 ppm: ≥ 80%
[6]
  percent effect (mortality or growth inhibition) at 200 ppm: ≥ 80%

## CCS(=O)(=O)c1cc(C(F)(F)F)c(-c2ccc(C(F)(F)F)cc2)nc1-c1nc2cc(C(F)(F)F)ncc2n1C [Compound P4, 2-[3-ethylsulfonyl-5-(trifluoromethyl)-6-[4-(trifluoromethyl)phenyl]-2-pyridyl]-3-methyl-6-(trifluoromethyl)imidazo[4,5-c]pyridine]
[1]
  percent effect (mortality or growth inhibition) at 200 ppm: ≥ 80%
[8]
  BP80 Values Diabrotica balteata: 10 ppm
[4]
  percent control (mortality, anti-feedant effect or growth inhibition) at 200 ppm: ≥ 80%
[6]
  percent effect (mortality or growth inhibition) at 200 ppm: ≥ 80%

## CCS(=O)(=O)c1cc(C(F)(F)F)c(-c2cccc(C(F)(F)F)c2)nc1-c1nc2cc(C(F)(F)F)ncc2n1C [Compound P5]
[1]
  percent effect (mortality or growth inhibition) at 200 ppm: ≥ 80%
[8]
  BP80 Values Diabrotica balteata: 10 ppm
[4]
  percent control (mortality, anti-feedant effect or growth inhibition) at 200 ppm: ≥ 80%

## CCS(=O)(=O)c1cc(C(F)(F)F)c(-c2ccccc2Cl)nc1-c1nc2cc(C(F)(F)F)ncc2n1C [Compound P6]
[1]
  percent effect (mortality or growth inhibition) at 200 ppm: ≥ 80%
[4]
  percent control (mortality, anti-feedant effect or growth inhibition) at 200 ppm: ≥ 80%
[6]
  percent effect (mortality or growth inhibition) at 200 ppm: ≥ 80%

## CCS(=O)(=O)c1ccc(-c2cc(F)cc(F)c2)nc1-c1nc2cc(C(F)(F)F)ncc2n1C [Compound P8, 2-[6-(3,5-difluorophenyl)-3-ethylsulfonyl-2-pyridyl]-3-methyl-6-(trifluoromethyl)imidazo[4,5-c]pyridine]
[1]
  percent effect (mortality or growth inhibition) at 200 ppm: ≥ 80%
[4]
  percent control (mortality, anti-feedant effect or growth inhibition) at 200 ppm: ≥ 80%
[6]
  percent effect (mortality or growth inhibition) at 200 ppm: ≥ 80%
[7]
  percent effect (mortality or growth inhibition) at 200 ppm: ≥ 80%

## CCS(=O)(=O)c1ccc(-n2ccc(C(F)(F)F)n2)nc1-c1nc2cc(SC(F)(F)F)ncc2n1C [Compound P9, 2-[3-ethylsulfonyl-6-[3-(trifluoromethyl)pyrazol-1-yl]-2-pyridyl]-3-methyl-6-(trifluoromethylsulfanyl)imidazo[4,5-c]pyridine]
[1]
  percent effect (mortality or growth inhibition) at 200 ppm: ≥ 80%
[9]
  mortality at 200 ppm: ≥ 80%
[4]
  percent control (mortality, anti-feedant effect or growth inhibition) at 200 ppm: ≥ 80%
[6]
  percent effect (mortality or growth inhibition) at 200 ppm: ≥ 80%
[7]
  percent effect (mortality or growth inhibition) at 200 ppm: ≥ 80%

## CCS(=O)(=O)c1ccc(-n2ccc(Cl)n2)nc1-c1nc2cc(SC(F)(F)F)ncc2n1C [Compound P11]
[1]
  percent effect (mortality or growth inhibition) at 200 ppm: ≥ 80%
[4]
  percent control (mortality, anti-feedant effect or growth inhibition) at 200 ppm: ≥ 80%
[6]
  percent effect (mortality or growth inhibition) at 200 ppm: ≥ 80%

## CCS(=O)(=O)c1ccc(C2CC2)nc1-c1nc2cc(Br)ncc2n1C [Compound P12, 6-bromo-2-(6-cyclopropyl-3-ethylsulfonyl-2-pyridyl)-3-methyl-imidazo[4,5-c]pyridine]
[1]
  percent effect (mortality or growth inhibition) at 200 ppm: ≥ 80%
[4]
  percent control (mortality, anti-feedant effect or growth inhibition) at 200 ppm: ≥ 80%
[6]
  percent effect (mortality or growth inhibition) at 200 ppm: ≥ 80%

## CCS(=O)(=O)c1ccc(C2CC2)nc1-c1nc2cc(SC(F)(F)F)ncc2n1C [Compound P13, 2-(6-cyclopropyl-3-ethylsulfonyl-2-pyridyl)-3-methyl-6-(trifluoromethylsulfanyl)imidazo[4,5-c]pyridine]
[1]
  percent effect (mortality or growth inhibition) at 200 ppm: ≥ 80%
[9]
  mortality at 200 ppm: ≥ 80%
[4]
  percent control (mortality, anti-feedant effect or growth inhibition) at 200 ppm: ≥ 80%
[10]
  mortality at 200 ppm: ≥ 80%
[6]
  percent effect (mortality or growth inhibition) at 200 ppm: ≥ 80%
[7]
  percent effect (mortality or growth inhibition) at 200 ppm: ≥ 80%
[11]
  percent effect (mortality, anti-feeding or growth inhibition) at 12.5 ppm: ≥ 80%
[12]
  mortality at 200 ppm: ≥ 80%

## CCS(=O)(=O)c1ccc(C2CC2)nc1-c1nc2cc(C(F)(F)F)nnc2n1C [Compound P14, 6-(6-cyclopropyl-3-ethylsulfonyl-2-pyridyl)-7-methyl-3-(trifluoromethyl)imidazo[4,5-c]pyridazine]
[1]
  percent effect (mortality or growth inhibition) at 200 ppm: ≥ 80%
[9]
  mortality at 200 ppm: ≥ 80%
[4]
  percent control (mortality, anti-feedant effect or growth inhibition) at 200 ppm: ≥ 80%
[10]
  mortality at 200 ppm: ≥ 80%
[6]
  percent effect (mortality or growth inhibition) at 200 ppm: ≥ 80%
[7]
  percent effect (mortality or growth inhibition) at 200 ppm: ≥ 80%
[11]
  percent effect (mortality, anti-feeding or growth inhibition) at 12.5 ppm: ≥ 80%

## CCS(=O)(=O)c1ccc(C2CC2)nc1-c1nc2cc(C(F)(F)F)ncc2n1C [Compound P15, 2-(6-cyclopropyl-3-ethylsulfonyl-2-pyridyl)-3-methyl-6-(trifluoromethyl)imidazo[4,5-c]pyridine]
[1]
  percent effect (mortality or growth inhibition) at 200 ppm: ≥ 80%
[4]
  percent control (mortality, anti-feedant effect or growth inhibition) at 200 ppm: ≥ 80%
[10]
  mortality at 200 ppm: ≥ 80%
[6]
  percent effect (mortality or growth inhibition) at 200 ppm: ≥ 80%
[7]
  percent effect (mortality or growth inhibition) at 200 ppm: ≥ 80%
[11]
  percent effect (mortality, anti-feeding or growth inhibition) at 12.5 ppm: ≥ 80%

## CCS(=O)(=O)c1cc(C(F)(F)F)cnc1-c1nc2cc(C(F)(F)F)ncc2n1C [Compound V12.01, reference compound]
[8]
  BP80 Values Diabrotica balteata: 16 ppm

## CCS(=O)(=O)c1cccnc1-c1nc2cc(C(F)(F)F)ncc2n1C [Compound V12.03, reference compound]
[2]
  BP80 Values Diabrotica balteata: 16 ppm
[3]
  BP80 Values Plutella xylostella: 250 ppm
[5]
  BP80 Values Spodoptera littoralis: 250 ppm
